Values after ≈ are worked out from the molar mass of the structure shown.
Experiments:
CaES-17 = assay: MTT solid tumor cell proliferation inhibition, CaES-17; format: cell-based, human; details: Homo sapiens, CaEs17; for inhibition at 16 µg/mL: CaES-17, 16 μg/mL compound, 72 h, read-out: IR (inhibition rate); for IC50: CaES-17, 72 h, MTT
Description: (§1) Human solid tumor cell lines: Hep-2 (laryngeal carcinoma), A549 (human lung cancer), CaES-17 (esophageal cancer cell), PC-3 (prostate cancer), CNE (nasopharyngeal carcinoma cell), and SK-OV-3 (ovarian cancer cell), all of which are purchased from China Center For Type Culture Collection; RKO (human colon adenocarcinoma cell), MGC 803 (human gastric cancer cell), MG63 (osteosarcoma) and U87 MG (malignant glioma cell), all of which are purchased from Fuxiang Bio-tech Co. Ltd., Shanghai, China; PANC-1 (pancreatic cancer), Hep G2 (human liver cancer cell), Becap37 (human breast cancer cell), and Hela (human cervical cancer cell), all of which are donated by Cancer Research Institute of Zhejiang University, China.
(§2) Obtaining 4000 well-growing human solid tumor cells and inoculating them into wells of a 96-well cell culture plate. The culture medium is DMEM High Glucose cell culture medium containing 10% fetal bovine serum. The plate is placed in a carbon dioxide cell incubator (5% CO2) at 37° C. for 24 hours for incubation. After being added with the amidated oleanolic acid derivatives of different concentrations and mixed uniformly, the plate is placed in a carbon dioxide cell incubator (5% CO2) at 37° C. for 72 hours for incubation. Then the relative number of the living cells is determined by the MTT method. In this experiment, the cell proliferation inhibition rate in control group (not treated with any compound) is set as 0%.

SK-OV-3 = assay: MTT solid tumor cell proliferation inhibition, SK-OV-3; format: cell-based, human; details: Homo sapiens; for inhibition at 16 µg/mL: SK-OV-3, 16 μg/mL compound, 72 h, read-out: IR (inhibition rate); for IC50: SK-OV-3, 72 h, MTT
Description: as §1, §2

Hep-2 = assay: MTT solid tumor cell proliferation inhibition, Hep-2; format: cell-based, human; details: Homo sapiens; for inhibition at 16 µg/mL: Hep-2, 16 μg/mL compound, 72 h, read-out: IR (inhibition rate); for IC50: Hep-2, 72 h, MTT
Description: as §1, §2

MGC803 = assay: MTT solid tumor cell proliferation inhibition, MGC803; format: cell-based, human; details: Homo sapiens, MGC-803; for inhibition at 16 µg/mL: MGC803, 16 μg/mL compound, 72 h, read-out: IR (inhibition rate); for IC50: MGC803, 72 h, MTT
Description: as §1, §2

PC-3 = assay: MTT solid tumor cell proliferation inhibition, PC-3; format: cell-based, human; details: Homo sapiens; for inhibition at 16 µg/mL: PC-3, 16 μg/mL compound, 72 h, read-out: IR (inhibition rate); for IC50: PC-3, 72 h, MTT
Description: as §1, §2

MG 63 = assay: MTT solid tumor cell proliferation inhibition, MG 63; format: cell-based, human; details: for IC50: Homo sapiens, MG 63, 72 h, MTT; for IR (inhibition rate): MG 63, 16 μg/mL compound, 72 h
Description: as §1, §2

RPMI8226 = assay: MTT multiple myeloma cell proliferation inhibition, RPMI8226; format: cell-based; details: Homo sapiens, RPMI-8226; for inhibition at 16 µg/mL: RPMI8226, 16 μg/mL compound, 72 h, read-out: IR (inhibition rate); for IC50: RPMI8226, 72 h, MTT
Description: Multiple myeloma cell lines: RPMI8226 (multiple myeloma), purchased from Fuxiang Bio-tech Co. Ltd., Shanghai, China.
(§3) Obtaining 6000 well-growing leukemia cells and inoculating them into wells of a 96-well cell culture plate. The culture medium is the 1640 cell culture medium containing 10% fetal bovine serum. After adding the amidated oleanolic acid derivatives of different concentrations and mixing uniformly, placing the plate in a carbon dioxide cell incubator (5% CO2) at 37° C. and incubated for 72 hours. Then the relative number of viable cells is determined by the MTT method. In this experiment, the cell proliferation inhibition rate in control group (not treated with any compound) is set as 0%.

Hep G2 = assay: MTT solid tumor cell proliferation inhibition, Hep G2; format: cell-based; details: Homo sapiens, HepG2; for inhibition at 16 µg/mL: Hep G2, 16 μg/mL compound, 72 h, read-out: IR (inhibition rate); for IC50: Hep G2, 72 h, MTT
Description: as §1, §2

PANC-1 = assay: MTT solid tumor cell proliferation inhibition, PANC-1; format: cell-based, human; details: Homo sapiens; for inhibition at 16 µg/mL: PANC-1, 16 μg/mL compound, 72 h, read-out: IR (inhibition rate); for IC50: PANC-1, 72 h, MTT
Description: as §1, §2

U87 MG = assay: MTT solid tumor cell proliferation inhibition, U87 MG; format: cell-based, human; details: Homo sapiens, U-87 MG, U87 MG, 72 h; for inhibition at 16 µg/mL: 16 μg/mL compound, read-out: IR (inhibition rate); for IC50: MTT
Description: as §1, §2

Becap37 = assay: MTT solid tumor cell proliferation inhibition, Becap37; format: cell-based; details: Homo sapiens; for inhibition at 16 µg/mL: Becap37, 16 μg/mL compound, 72 h, read-out: IR (inhibition rate); for IC50: Becap37, 72 h, MTT
Description: as §1, §2

Kasumi-1 = assay: MTT leukemia cell proliferation inhibition, Kasumi-1; format: cell-based; details: Homo sapiens; for inhibition at 16 µg/mL: Kasumi-1, 16 μg/mL compound, 72 h, read-out: IR (inhibition rate); for IC50: Kasumi-1, 72 h, MTT
Text: (§4) Leukemia cell lines: leukemia cell lines: K562/adr (drug-resistant, chronic myeloid leukemia, CML), NB4 (acute promyelocytic leukemia, AML), Kasumi-1 (acute myeloid leukemia M2 type, AML-M2), Jurkat (acute lymphoblastic leukemia, ALL), all of which are donated by Cancer Research Institute of Zhejiang University, China; and H9 (acute lymphoblastic leukemia, ALL), which is purchased from China Center for Type Culture Collection (CCTCC).
(§5) Reagents: The standard sample of oleanolic acid (OA) is purchased from Hua Kang Pharmaceutical Raw Material Factory, Shifang City, Sichuan, China; and the amidated oleanolic acid derivatives are prepared according to the present invention.
as §3

K562/adr = assay: MTT leukemia cell proliferation inhibition, K562/adr; format: cell-based; details: Homo sapiens, 72 h; for inhibition at 16 µg/mL: 16 μg/mL compound, read-out: IR (inhibition rate); for IC50: MTT
Text: as §4, §5, §3

Jurkat = assay: MTT leukemia cell proliferation inhibition, Jurkat; format: cell-based; details: Homo sapiens, 72 h; for inhibition at 16 µg/mL: 16 μg/mL compound, read-out: IR (inhibition rate); for IC50: MTT
Text: as §4, §5, §3

NB4 = assay: MTT leukemia cell proliferation inhibition, NB4; format: cell-based; details: Homo sapiens, NB-4; for inhibition at 16 µg/mL: NB4, 16 μg/mL compound, 72 h, read-out: IR (inhibition rate); for IC50: NB4, 72 h, MTT
Text: as §4, §5, §3

RKO = assay: MTT solid tumor cell proliferation inhibition, RKO; format: cell-based; details: Homo sapiens, 72 h; for inhibition at 16 µg/mL: 16 μg/mL compound, read-out: IR (inhibition rate); for IC50: MTT
Description: as §1, §2

CNE = assay: MTT solid tumor cell proliferation inhibition, CNE; format: cell-based, human; details: Homo sapiens, CNE, 72 h; for inhibition at 16 µg/mL: 16 μg/mL compound, read-out: IR (inhibition rate); for IC50: MTT
Description: as §1, §2

H9 = assay: MTT leukemia cell proliferation inhibition, H9; format: cell-based, human; details: Homo sapiens; for inhibition at 16 µg/mL: H9, 16 μg/mL compound, 72 h, read-out: IR (inhibition rate); for IC50: H9, 72 h, MTT
Text: as §4, §5, §3

A549 = assay: MTT solid tumor cell proliferation inhibition, A549; format: cell-based, human; details: Homo sapiens; for inhibition at 16 µg/mL: A549, 16 μg/mL compound, 72 h, read-out: IR (inhibition rate); for IC50: A549, 72 h, MTT
Description: as §1, §2

Hela = assay: MTT solid tumor cell proliferation inhibition, Hela; format: cell-based, human; details: Homo sapiens, Hela, 72 h; for inhibition at 16 µg/mL: 16 μg/mL compound, read-out: IR (inhibition rate); for IC50: MTT
Description: as §1, §2

Structure (SMILES) | inhibition at 16 µg/mL (CaES-17) | IC50 (CaES-17) | inhibition at 16 µg/mL (SK-OV-3) | IC50 (SK-OV-3) | inhibition at 16 µg/mL (Hep-2) | IC50 (Hep-2) | inhibition at 16 µg/mL (MGC803) | IC50 (MGC803) | inhibition at 16 µg/mL (PC-3) | IC50 (PC-3) | IC50 (MG 63) | IR (inhibition rate) (MG 63) | inhibition at 16 µg/mL (RPMI8226) | IC50 (RPMI8226) | inhibition at 16 µg/mL (Hep G2) | IC50 (Hep G2) | inhibition at 16 µg/mL (K562/adr) | IC50 (K562/adr) | inhibition at 16 µg/mL (A549) | IC50 (A549) | further results
CC1(C)CC[C@]2(NC(=O)c3ccccc3)CC[C@]3(C)C(=CC[C@@H]4[C@@]5(C)CC[C@H](O)C(C)(C)[C@@H]5CC[C@]43C)[C@@H]2C1 [BS-OA-101] | 25.8% | > 16 µg/mL | 39.7% | > 16 µg/mL | 7.5% | > 16 µg/mL | 33.2% | > 16 µg/mL | 45.7% | 19.9 µg/mL (≈ 37.4 µM) | > 16 µg/mL | 17.3% | 97.5% | 6.49 µg/mL (≈ 12.2 µM) | 16.1% | > 16 µg/mL | 88.7% | 6.29 µg/mL (≈ 11.8 µM) | 37.6% | > 16 µg/mL | inhibition at 16 µg/mL (PANC-1): 20.6%; IC50 (PANC-1): > 16 µg/mL; inhibition at 16 µg/mL (U87 MG): 36.4%; IC50 (U87 MG): > 16 µg/mL; inhibition at 16 µg/mL (Becap37): 18.1%; IC50 (Becap37): > 16 µg/mL; inhibition at 16 µg/mL (Kasumi-1): 53.8%; IC50 (Kasumi-1): 15.4 µg/mL (≈ 29 µM); inhibition at 16 µg/mL (Jurkat): 30%; IC50 (Jurkat): > 16 µg/mL; inhibition at 16 µg/mL (NB4): 96.1%; IC50 (NB4): 8.2 µg/mL (≈ 15.4 µM); inhibition at 16 µg/mL (RKO): 22.5%; IC50 (RKO): > 16 µg/mL; inhibition at 16 µg/mL (CNE): 36.2%; IC50 (CNE): > 16 µg/mL; inhibition at 16 µg/mL (H9): 58.7%; IC50 (H9): 14 µg/mL (≈ 26.3 µM); inhibition at 16 µg/mL (Hela): 57%; IC50 (Hela): 15.8 µg/mL (≈ 29.8 µM)
COc1cccc(C(=O)N[C@]23CCC(C)(C)C[C@H]2C2=CC[C@@H]4[C@@]5(C)CC[C@H](O)C(C)(C)[C@@H]5CC[C@@]4(C)[C@]2(C)CC3)c1 [BS-OA-103] | -5.9% | > 16 µg/mL | 17.2% | > 16 µg/mL | 10.6% | > 16 µg/mL | 7% | > 16 µg/mL | 24.5% | > 16 µg/mL | > 16 µg/mL | −25.4% | 90.2% | 9.63 µg/mL (≈ 17.1 µM) | 8% | > 16 µg/mL | 87.3% | 5.7 µg/mL (≈ 10.1 µM) | 29.8% | > 16 µg/mL | inhibition at 16 µg/mL (PANC-1): 33.7%; IC50 (PANC-1): > 16 µg/mL; inhibition at 16 µg/mL (U87 MG): 3.7%; IC50 (U87 MG): > 16 µg/mL; inhibition at 16 µg/mL (Becap37): 4.6%; IC50 (Becap37): > 16 µg/mL; inhibition at 16 µg/mL (Kasumi-1): 19.9%; IC50 (Kasumi-1): > 16 µg/mL; inhibition at 16 µg/mL (Jurkat): -2.5%; IC50 (Jurkat): > 16 µg/mL; inhibition at 16 µg/mL (NB4): 48.5%; IC50 (NB4): 16 µg/mL (≈ 28.5 µM); inhibition at 16 µg/mL (RKO): -11.7%; IC50 (RKO): > 16 µg/mL; inhibition at 16 µg/mL (CNE): 26%; IC50 (CNE): > 16 µg/mL; inhibition at 16 µg/mL (H9): 34.1%; IC50 (H9): > 16 µg/mL; inhibition at 16 µg/mL (Hela): 38.4%; IC50 (Hela): > 16 µg/mL
Cc1ccc(C(=O)N[C@]23CCC(C)(C)C[C@H]2C2=CC[C@@H]4[C@@]5(C)CC[C@H](O)C(C)(C)[C@@H]5CC[C@@]4(C)[C@]2(C)CC3)cc1 [BS-OA-102] | – | – | – | – | – | – | – | – | – | – | – | – | – | – | – | – | 57% | > 16 µg/mL | 13.7% | > 16 µg/mL | –
CC1(C)CC[C@]2(NC(=O)/C=C/c3ccco3)CC[C@]3(C)C(=CC[C@@H]4[C@@]5(C)CC[C@H](O)C(C)(C)[C@@H]5CC[C@]43C)[C@@H]2C1 [BS-OA-100] | – | – | – | – | – | – | – | – | – | – | – | – | – | – | – | – | 38.8% | > 16 µg/mL | 15.6% | > 16 µg/mL | –
